Reference: the supplement of paper PMC8671470

What was measured:
Assay in all cases: cell viability (% survival relative to DMSO control, bortezomib = 0%); higher = less cytotoxic
Conditions in all cases: 72 h
SHI-1 = test system: SHI-1
Procedure, shortened: (§1)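 Percent survival figures are means of duplicate wells. They were obtained by CellTiter-Glo luminescence after 10 AML and 5 CML cell lines spent 72 h at 37 °C with 5% CO2 in 384-well plates with compounds at 1, 10, 100, 1000 or 10000 nM. Vehicle was set to 100% and a 10 µM positive control to 0%.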

HL-60 = test system: HL-60
Procedure, shortened: as §1

KG-1 = test system: KG-1
Procedure, shortened: as §1

LAMA-84 = test system: LAMA-84
Procedure, shortened: as §1

SMILES | cell viability (SHI-1; 1 nM) [%] | cell viability (SHI-1; 10 nM) [%] | cell viability (SHI-1; 100 nM) [%] | cell viability (SHI-1; 1000 nM) [%] | cell viability (SHI-1; 10000 nM) [%] | cell viability (HL-60; 1 nM) [%] | cell viability (HL-60; 10 nM) [%] | cell viability (HL-60; 100 nM) [%] | cell viability (HL-60; 1000 nM) [%] | cell viability (HL-60; 10000 nM) [%] | cell viability (KG-1; 1 nM) [%] | cell viability (KG-1; 10 nM) [%] | cell viability (KG-1; 100 nM) [%] | cell viability (KG-1; 1000 nM) [%] | cell viability (KG-1; 10000 nM) [%] | cell viability (LAMA-84; 1 nM) [%] | cell viability (LAMA-84; 10 nM) [%] | cell viability (LAMA-84; 100 nM) [%] | cell viability (LAMA-84; 1000 nM) [%] | cell viability (LAMA-84; 10000 nM) [%]
CC(/C=C1\SC(=S)N(CC(=O)O)C1=O)=C\c1ccccc1 [Epalrestat] | 120 | 100 | 106 | 93.5 | 113 | 120 | 102 | 109 | 112 | 115 | 108 | 101 | 116 | 104 | 111 | 104 | 99.8 | 82.6 | 104 | 99.8
CCOC(=O)[C@@]1(CCCCCCOc2ccc(Cl)cc2)CO1 [Etomoxir] | 107 | 108 | 110 | 105 | 104 | 77.7 | 74.7 | 83.3 | 98.5 | 69.5 | 94.3 | 99.8 | 112 | 94.5 | 91.1 | 94.9 | 110 | 106 | 58.5 | 62.7
Cc1c(-c2ccccc2)oc2c(C(=O)OCCN3CCCCC3)cccc2c1=O.Cl [Flavoxate] | 94.8 | 99.6 | 97.6 | 98.4 | 101 | 89.2 | 121 | 90.7 | 102 | 103 | 94.7 | 108 | 94.8 | 97 | 106 | 98 | 102 | 97.6 | 101 | 101
O=C(O)CCc1ccc(NCc2cccc(Oc3ccccc3)c2)cc1 [GW9508] | 102 | 99.4 | 120 | 97.8 | 107 | 90 | 94.3 | 104 | 103 | 83.5 | 90.6 | 101 | 96.8 | 108 | 107 | 96.8 | 98.6 | 108 | 93.2 | 106
c1ccc2c(c1)OCC(=C1NCCN1)O2 [Idazoxan] | 105 | 103 | 89.8 | 101 | 95.1 | 89.1 | 80.3 | 80 | 97.2 | 75.9 | 104 | 112 | 93.6 | 96.4 | 85.9 | 101 | 98.4 | 89 | 96.5 | 93
C[C@]12O[C@H](C[C@]1(O)CO)n1c3ccccc3c3c4c(c5c6ccccc6n2c5c31)CNC4=O [Lestaurtinib] | 107 | 97.9 | 37.1 | 19.5 | 0.00197 | 91.8 | 77.6 | 44.5 | 17.5 | 0.00654 | 98.3 | 69.3 | 28 | 10.3 | 6.14 | 99.6 | 94.4 | 34.2 | 25 | 0.148
O=C(O)c1nn(Cc2ccc(Cl)cc2Cl)c2ccccc12 [Lonidamine] | 107 | 114 | 105 | 95.5 | 99.4 | 100 | 119 | 90.2 | 82.2 | 105 | 97.8 | 103 | 103 | 84.7 | 71.9 | 99.1 | 94.6 | 108 | 99.9 | 102
C1CCc2nnc(C34CC5CC(CC(C5)C3)C4)n2CC1 [MERCK-544] | 90.2 | 110 | 104 | 90.2 | 118 | 94.7 | 154 | 103 | 74.8 | 129 | 101 | 106 | 98.5 | 95.2 | 105 | 102 | 94.5 | 91.9 | 92.9 | 101
CC(Cc1ccc(O)c(O)c1)C(C)Cc1ccc(O)c(O)c1 (centres undefined) [Masoprocol] | 97.1 | 96.2 | 118 | 93.3 | 70.1 | 89 | 81.2 | 118 | 90 | 6.31 | 99 | 109 | 108 | 94.8 | 48.2 | 95.8 | 95.7 | 106 | 95.5 | 94
CC(C(=O)O)C(=O)O [Methylmalonate] | 98.9 | 83.3 | 105 | 88.7 | 97 | 84.9 | 104 | 92.2 | 116 | 90.1 | 92.5 | 90.8 | 91.2 | 88.9 | 88.4 | 89.2 | 101 | 106 | 98.2 | 90.3
COc1c(C)c2c(c(O)c1C/C=C(\C)CCC(=O)O)C(=O)OC2 [Mycophenolic acid] | 105 | 104 | 92 | 77.2 | 14.4 | 108 | 117 | 80 | 51.3 | 18.4 | 101 | 104 | 94.5 | 70.6 | 18.5 | 106 | 93.2 | 108 | 46.8 | 16.9
C1CCC(C(CC2CCCCN2)C2CCCCC2)CC1.O=C(O)/C=C\C(=O)O (centres undefined) [Perhexiline] | 95 | 92 | 103 | 102 | 0.332 | 91.2 | 90.1 | 110 | 93 | -0.124 | 91.9 | 85.2 | 100 | 95.6 | 0.46 | 97.7 | 89.1 | 98 | 97.7 | 12.3
OCCN1CCN(CCCN2c3ccccc3Sc3ccc(Cl)cc32)CC1 [Perphenazine] | 100 | 110 | 97.1 | 123 | 55.2 | 97.8 | 133 | 92 | 103 | 18.8 | 105 | 93 | 97.4 | 99.7 | 43.4 | 105 | 103 | 93.5 | 97.2 | 47.6
C=CCc1ccc2c(c1O)C(=O)c1ccccc1C2=O [R162] | 101 | 99.7 | 104 | 118 | 101 | 98.1 | 104 | 95.6 | 92.5 | 101 | 85.5 | 98 | 107 | 109 | 114 | 104 | 97.2 | 94.7 | 103 | 88.7
O=C(c1ccc(OCCN2CCCCC2)cc1)c1c(-c2ccc(O)cc2)sc2cc(O)ccc12 [Raloxifene] | 97 | 102 | 107 | 110 | 89.5 | 99.3 | 90.6 | 99.8 | 110 | 62.1 | 102 | 90.6 | 92.1 | 96.5 | 75.1 | 106 | 102 | 94.9 | 95.5 | 87.9
NC(=O)c1ncn([C@@H]2O[C@H](CO)[C@@H](O)[C@H]2O)n1 [Ribavirin] | 105 | 112 | 111 | 111 | 111 | 92.6 | 101 | 130 | 110 | 149 | 98.9 | 110 | 96.8 | 95.2 | 98.1 | 84.9 | 98.2 | 101 | 110 | 89.8
Nc1ncnc2c1ncn2[C@@H]1O[C@H](CSCC[C@H](N)C(=O)O)[C@@H](O)[C@H]1O [S-Adenosyl Homocysteine] | 100 | 122 | 111 | 105 | 99.9 | 103 | 101 | 115 | 111 | 74.9 | 110 | 106 | 98.1 | 100 | 102 | 105 | 110 | 100 | 99.4 | 103
CCCc1nn(C)c2c(O)nc(-c3cc(S(=O)(=O)N4CCN(C)CC4)ccc3OCC)nc12 [Sildenafil] | 103 | 95 | 104 | 111 | 114 | 99.7 | 88.7 | 100 | 82.9 | 111 | 95.9 | 97 | 95.7 | 105 | 108 | 91.3 | 98.8 | 92.1 | 95 | 103
Cc1coc2c1C(=O)C(=O)c1c-2ccc2c(C)cccc12 [Tanshinone I] | 110 | 88.4 | 108 | 105 | 84.2 | 99 | 105 | 117 | 105 | 79.7 | 113 | 99.9 | 98 | 99.3 | 77.6 | 104 | 105 | 101 | 108 | 95.4
CN(C/C=C/C#CC(C)(C)C)Cc1cccc2ccccc12 [Terbinafine] | 99.4 | 101 | 108 | 99.5 | 98.9 | 104 | 107 | 118 | 105 | 93.8 | 94.1 | 106 | 90.9 | 95.5 | 92.6 | 104 | 97.7 | 110 | 101 | 93.9
CCOC(=O)N1c2ccc(C(F)(F)F)cc2[C@@H](N(Cc2cc(C(F)(F)F)cc(C(F)(F)F)c2)C(=O)OC)C[C@H]1CC [Torcetrapib] | 94.8 | 105 | 132 | 114 | 99.8 | 92.7 | 109 |  | 107 | 91 | 84.9 | 52.6 | 107 | 81.1 | 45.1 | 116 | 103 | 110 | 95.6 | 110
Oc1cc(Cl)ccc1Oc1ccc(Cl)cc1Cl [Triclosan] | 105 | 96 | 98.3 | 101 | 103 | 90.3 | 76.6 | 85.1 | 106 | 102 | 111 | 89.3 | 98.3 | 109 | 143 | 102 | 91.1 | 103 | 108 | 66.5
COc1cc2c(NC3CCN(C)CC3)nc(N3CCCN(C)CC3)nc2cc1OCCCN(C)C [UNC0224] | 91.9 | 108 | 102 | 93.1 | 73.7 | 92.3 | 123 | 97.8 | 89.5 | 65.1 | 102 | 117 | 94.1 | 96.8 | 108 | 91.1 | 106 | 96.5 | 95.9 | 95.8
CC(C)C[C@H](NC(=O)[C@@H](O)[C@H](N)Cc1ccccc1)C(=O)O [Ubenimex] | 99.4 | 104 | 93.2 | 80.5 | 91.3 | 98.3 | 124 | 98.7 | 77.9 | 97 | 111 | 105 | 98.9 | 92.2 | 88.9 | 115 | 101 | 103 | 101 | 101
O=P(O)(O)C(O)(Cn1ccnc1)P(=O)(O)O [Zoledronic acid] | 108 | 116 | 102 | 100 | 104 | 84.3 | 111 | 105 | 98.3 | 111 | 99.3 | 106 | 111 | 103 | 108 | 99.5 | 104 | 100 | 98.2 | 99.2
